# Measured values: BindingDB's records for doi:10.1021/jm050513m (The University of Texas At Houston, 2005)
# pIC50: −log10 of the molar value. Values joined by “and” are separate entries in the source; they are usually repeats but may differ in a detail not shown here. Equal values may be shown once. Numbered stars: 1 amine (or outer) side, 2 acyl side, 3 side chain; on linkers, the order of the positions; unused ones are H or OH. Square brackets hold non-standard residues; d marks the D form. Peptide text beside a SMILES is read from it. * marks the point of attachment. ξ: configuration not given here. pY = N[C@@H](Cc1ccc(OP(=O)(O)O)cc1)C(=O)O; Dip = N[C@H](C(=O)O)C(c1ccccc1)c1ccccc1; NH(1S-phenylethyl) = C[C@H](N*)c1ccccc1; Met(O2) = CS(=O)(=O)CC[C@H](N)C(=O)O; X2 = O=C([C@H]1CCCN([*:1])C1)[*:2]; Hyp = O=C(O)[C@@H]1C[C@@H](O)CN1; Met(O) = CS(=O)CC[C@H](N)C(=O)O; Cha = N[C@@H](CC1CCCCC1)C(=O)O; Thr(3ξ) = CC(O)[C@H](N)C(=O)O; αMeP = C[C@@]1(C(=O)O)CCCN1; 3Abz = Nc1cccc(C(=O)O)c1; Ac6c = NC1(C(=O)O)CCCCC1; Nle = CCCC[C@H](N)C(=O)O; Piperidide = C1CCN(*)CC1; NHBn = c1ccc(CN*)cc1; Bz = O=C(c1ccccc1)*; NEt2 = CCN(CC)*
# Target: Signal transducer and activator of transcription 3 (Mus musculus, UniProt P42227)
# Sequence (P42227 whole entry): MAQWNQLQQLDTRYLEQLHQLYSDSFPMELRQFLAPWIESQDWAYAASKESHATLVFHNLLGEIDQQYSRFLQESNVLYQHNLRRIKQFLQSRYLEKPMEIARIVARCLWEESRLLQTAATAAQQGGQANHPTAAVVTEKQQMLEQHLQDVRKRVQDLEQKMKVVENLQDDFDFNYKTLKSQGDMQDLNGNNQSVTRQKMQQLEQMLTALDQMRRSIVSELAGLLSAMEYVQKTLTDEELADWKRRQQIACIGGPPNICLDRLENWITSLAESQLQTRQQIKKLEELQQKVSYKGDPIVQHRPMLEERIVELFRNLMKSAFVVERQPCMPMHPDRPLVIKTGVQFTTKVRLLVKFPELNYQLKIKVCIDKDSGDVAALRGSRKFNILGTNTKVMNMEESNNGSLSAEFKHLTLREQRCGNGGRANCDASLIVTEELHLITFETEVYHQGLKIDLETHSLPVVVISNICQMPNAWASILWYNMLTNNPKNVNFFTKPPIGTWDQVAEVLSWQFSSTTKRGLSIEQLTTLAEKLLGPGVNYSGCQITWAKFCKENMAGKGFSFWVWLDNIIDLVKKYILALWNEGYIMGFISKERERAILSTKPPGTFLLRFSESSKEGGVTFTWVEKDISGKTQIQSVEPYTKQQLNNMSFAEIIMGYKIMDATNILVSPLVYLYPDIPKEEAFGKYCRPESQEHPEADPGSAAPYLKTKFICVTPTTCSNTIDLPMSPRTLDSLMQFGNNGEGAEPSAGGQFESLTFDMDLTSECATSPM
# Assay: Fluorescence Polarization Assay
# Protocol: Fluorescence polarization (FP) binding assay is utilizing the intrinsic property of the fluorescent probe, which will have low polarization value when free in solution. On binding to a target, the polarization of the probe will increase. Reaction mixtures of full length STAT3 alpha and the probe were placed in wells of a 96-well microtiter plate. The test peptide solution was added to each well. Fluorescence polarization was then read in a Tecan Polarian plate reader. The IC50 values were obtained from nonlinear regression analysis in the one-site competition mode. Peptides were assayed three times using three separate Stat3-probe preparations. IC50 values are reported as the mean of three IC50 values +/- the standard deviation.
structure (smiles),measurement,setting,value
CC(=O)N[C@@H](Cc1ccc(OP(=O)(O)O)cc1)C(=O)N[C@@H](CC(C)C)C(=O)N1CCC[C@H]1C(=O)N[C@@H](CCC(N)=O)C(=O)O [(2S)-4-carbamoyl-2-{[(2S)-1-[(2S)-2-[(2S)-2-acetamido-3-[4-(phosphonooxy)phenyl]propanamido]-4-methylpentanoyl]pyrrolidin-2-yl]formamido}butanoic acid] (Ac-[pY]LPQ-OH),pIC50,,6.13
CC(=O)N[C@@H](Cc1ccc(OP(=O)(O)O)cc1)C(=O)N[C@@H](CC(C)C)C(=O)N1CCC[C@H]1C(=O)N[C@@H](CCC(N)=O)C(=O)N1CCCCC1 [4-[(2S)-2-{[(2S)-1-[(2S)-2-{[(2S)-4-carbamoyl-1-oxo-1-(piperidin-1-yl)butan-2-yl]carbamoyl}pyrrolidin-1-yl]-4-methyl-1-oxopentan-2-yl]carbamoyl}-2-acetamidoethyl]phenoxyphosphonic acid] (Ac-[pY]LPQ-Piperidide),pIC50,,5.15
"CC(=O)N[C@@H](Cc1ccc(OP(=O)(O)O)cc1)C(=O)N[C@H](C(=O)N1CCC[C@H]1C(=O)N[C@@H](CCC(N)=O)C(=O)N[C@H](C(N)=O)C(C)O)C(c1ccccc1)c1ccccc1 (stereo partly drawn) [4-[(2S)-2-{[(2S)-1-[(2S)-2-{[(1S)-3-carbamoyl-1-{[(1S,2S)-1-carbamoyl-2-hydroxypropyl]carbamoyl}propyl]carbamoyl}pyrrolidin-1-yl]-1-oxo-3,3-diphenylpropan-2-yl]carbamoyl}-2-acetamidoethyl]phenoxyphosphonic acid] (Ac-[pY][Dip]PQ[Thr(3ξ)]-NH2)",pIC50,"pH 7.5, 22 °C",< 4.00
"CC(=O)N[C@@H](Cc1ccc(OP(=O)(O)O)cc1)C(=O)N[C@@H](Cc1ccccc1)C(=O)N1CCC[C@H]1C(=O)N[C@@H](CCC(N)=O)C(=O)N[C@H](C(N)=O)C(C)O (stereo partly drawn) [4-[(2S)-2-{[(2S)-1-[(2S)-2-{[(1S)-3-carbamoyl-1-{[(1S,2S)-1-carbamoyl-2-hydroxypropyl]carbamoyl}propyl]carbamoyl}pyrrolidin-1-yl]-1-oxo-3-phenylpropan-2-yl]carbamoyl}-2-acetamidoethyl]phenoxyphosphonic acid] (Ac-[pY]FPQ[Thr(3ξ)]-NH2)",pIC50,"pH 7.5, 22 °C",5.72
"CC(=O)N[C@@H](Cc1ccc(OP(=O)(O)O)cc1)C(=O)N[C@@H](CC(C)C)C(=O)N1CCC[C@H]1C(=O)N[C@@H](CC[S+](C)[O-])C(=O)N[C@H](C(N)=O)C(C)O (stereo partly drawn) [4-[(2S)-2-{[(2S)-1-[(2S)-2-{[(1S)-1-{[(1S,2S)-1-carbamoyl-2-hydroxypropyl]carbamoyl}-3-methanesulfinylpropyl]carbamoyl}pyrrolidin-1-yl]-4-methyl-1-oxopentan-2-yl]carbamoyl}-2-acetamidoethyl]phenoxyphosphonic acid] (Ac-[pY]LP[Met(O)][Thr(3ξ)]-NH2)",pIC50,"pH 7.5, 22 °C",5.01
CC(=O)N[C@@H](Cc1ccc(OP(=O)(O)O)cc1)C(=O)N[C@@H](CC(C)C)C(=O)N1CCC[C@H]1C(=O)N[C@@H](CCC(N)=O)C(=O)N[C@@H](C)c1ccccc1 [4-[(2S)-2-{[(2S)-1-[(2S)-2-{[(1S)-3-carbamoyl-1-{[(1S)-1-phenylethyl]carbamoyl}propyl]carbamoyl}pyrrolidin-1-yl]-4-methyl-1-oxopentan-2-yl]carbamoyl}-2-acetamidoethyl]phenoxyphosphonic acid] (Ac-[pY]LPQ-{NH(1S-phenylethyl)}),pIC50,,6.22
"CC(=O)N[C@@H](Cc1ccc(OP(=O)(O)O)cc1)C(=O)N[C@@H](CC1CCCCC1)C(=O)N1CCC[C@H]1C(=O)N[C@@H](CCC(N)=O)C(=O)N[C@H](C(N)=O)C(C)O (stereo partly drawn) [4-[(2S)-2-{[(2S)-1-[(2S)-2-{[(1S)-3-carbamoyl-1-{[(1S,2S)-1-carbamoyl-2-hydroxypropyl]carbamoyl}propyl]carbamoyl}pyrrolidin-1-yl]-3-cyclohexyl-1-oxopropan-2-yl]carbamoyl}-2-acetamidoethyl]phenoxyphosphonic acid] (Ac-[pY][Cha]PQ[Thr(3ξ)]-NH2)",pIC50,"pH 7.5, 22 °C",6.04
"CC(=O)N[C@@H](Cc1ccc(OP(=O)(O)O)cc1)C(=O)N[C@@H](CC(C)C)C(=O)N1CCC[C@H]1C(=O)N[C@@H](CCS(C)(=O)=O)C(=O)N[C@H](C(N)=O)C(C)O (stereo partly drawn) [4-[(2S)-2-{[(2S)-1-[(2S)-2-{[(1S)-1-{[(1S,2S)-1-carbamoyl-2-hydroxypropyl]carbamoyl}-3-methanesulfonylpropyl]carbamoyl}pyrrolidin-1-yl]-4-methyl-1-oxopentan-2-yl]carbamoyl}-2-acetamidoethyl]phenoxyphosphonic acid] (Ac-[pY]LP[Met(O2)][Thr(3ξ)]-NH2)",pIC50,"pH 7.5, 22 °C",4.86
"CC(C)C[C@H](NC(=O)[C@H](Cc1ccc(OP(=O)(O)O)cc1)NC(=O)c1ccccc1)C(=O)N1CCC[C@H]1C(=O)N[C@@H](CCC(N)=O)C(=O)N[C@H](C(N)=O)C(C)O (stereo partly drawn) [4-[(2S)-2-{[(2S)-1-[(2S)-2-{[(1S)-3-carbamoyl-1-{[(1S,2S)-1-carbamoyl-2-hydroxypropyl]carbamoyl}propyl]carbamoyl}pyrrolidin-1-yl]-4-methyl-1-oxopentan-2-yl]carbamoyl}-2-(phenylformamido)ethyl]phenoxyphosphonic acid] (Bz-[pY]LPQ[Thr(3ξ)]-NH2)",pIC50,"pH 7.5, 22 °C",6.09
"CC(=O)N[C@@H](Cc1ccc(OP(=O)(O)O)cc1)C(=O)N[C@@H](CC(C)C)C(=O)NC1(C(=O)N[C@@H](CCC(N)=O)C(=O)N[C@H](C(N)=O)C(C)O)CCCCC1 (stereo partly drawn) [4-[(2S)-2-{[(1S)-1-[(1-{[(1S)-3-carbamoyl-1-{[(1S,2S)-1-carbamoyl-2-hydroxypropyl]carbamoyl}propyl]carbamoyl}cyclohexyl)carbamoyl]-3-methylbutyl]carbamoyl}-2-acetamidoethyl]phenoxyphosphonic acid] (Ac-[pY]L[Ac6c]Q[Thr(3ξ)]-NH2)",pIC50,"pH 7.5, 22 °C",4.87
"CNC(=O)CC[C@H](NC(=O)[C@@H]1CCCN1C(=O)[C@H](CC(C)C)NC(=O)[C@H](Cc1ccc(OP(=O)(O)O)cc1)NC(C)=O)C(=O)N[C@H](C(N)=O)C(C)O (stereo partly drawn) [4-[(2S)-2-{[(2S)-1-[(2S)-2-{[(1S)-1-{[(1S,2S)-1-carbamoyl-2-hydroxypropyl]carbamoyl}-3-(methylcarbamoyl)propyl]carbamoyl}pyrrolidin-1-yl]-4-methyl-1-oxopentan-2-yl]carbamoyl}-2-acetamidoethyl]phenoxyphosphonic acid] (Ac-[pY]LPE(NHMe)[Thr(3ξ)]-NH2)",pIC50,"pH 7.5, 22 °C",4.74
"CC(=O)N[C@@H](Cc1ccc(OP(=O)(O)O)cc1)C(=O)N[C@@H](CC(C)C)C(=O)N1CCC[C@@]1(C)C(=O)N[C@@H](CCC(N)=O)C(=O)N[C@H](C(N)=O)C(C)O (stereo partly drawn) [4-[(2S)-2-{[(2S)-1-[(2S)-2-{[(1S)-3-carbamoyl-1-{[(1S,2S)-1-carbamoyl-2-hydroxypropyl]carbamoyl}propyl]carbamoyl}-2-methylpyrrolidin-1-yl]-4-methyl-1-oxopentan-2-yl]carbamoyl}-2-acetamidoethyl]phenoxyphosphonic acid] (Ac-[pY]L[αMeP]Q[Thr(3ξ)]-NH2)",pIC50,"pH 7.5, 22 °C",5.73
"CCCC[C@H](NC(=O)[C@H](Cc1ccc(OP(=O)(O)O)cc1)NC(C)=O)C(=O)N1CCC[C@H]1C(=O)N[C@@H](CCC(N)=O)C(=O)N[C@H](C(N)=O)C(C)O (stereo partly drawn) [4-[(2S)-2-{[(2S)-1-[(2S)-2-{[(1S)-3-carbamoyl-1-{[(1S,2S)-1-carbamoyl-2-hydroxypropyl]carbamoyl}propyl]carbamoyl}pyrrolidin-1-yl]-1-oxohexan-2-yl]carbamoyl}-2-acetamidoethyl]phenoxyphosphonic acid] (Ac-[pY][Nle]PQ[Thr(3ξ)]-NH2)",pIC50,"pH 7.5, 22 °C",6.14
CC(=O)N[C@@H](Cc1ccc(OP(=O)(O)O)cc1)C(=O)N[C@@H](CC(C)C)C(=O)N1CCC[C@H]1C(=O)Nc1cccc(C(N)=O)c1 [4-[(2S)-2-{[(2S)-1-[(2S)-2-[(3-carbamoylphenyl)carbamoyl]pyrrolidin-1-yl]-4-methyl-1-oxopentan-2-yl]carbamoyl}-2-acetamidoethyl]phenoxyphosphonic acid] (Ac-[pY]LP[3Abz]-NH2),pIC50,,4.44
CC(=O)N[C@@H](Cc1ccc(OP(=O)(O)O)cc1)C(=O)N[C@@H](CC(C)C)C(=O)N1CCC[C@H]1C(=O)N[C@@H](CCC(N)=O)C(=O)NCc1ccccc1 (Ac-[pY]LPQ-NHBn),pIC50,,6.39
"CC(=O)N[C@@H](Cc1ccc(OP(=O)(O)O)cc1)C(=O)N[C@@H](CC(C)C)C(=O)N1C[C@H](O)C[C@H]1C(=O)N[C@@H](CCC(N)=O)C(=O)N[C@H](C(N)=O)C(C)O (stereo partly drawn) [4-[(2S)-2-{[(2S)-1-[(2S,4R)-2-{[(1S)-3-carbamoyl-1-{[(1S,2S)-1-carbamoyl-2-hydroxypropyl]carbamoyl}propyl]carbamoyl}-4-hydroxypyrrolidin-1-yl]-4-methyl-1-oxopentan-2-yl]carbamoyl}-2-acetamidoethyl]phenoxyphosphonic acid] (Ac-[pY]L[Hyp]Q[Thr(3ξ)]-NH2)",pIC50,"pH 7.5, 22 °C",6.32
CC(=O)N[C@@H](Cc1ccc(OP(=O)(O)O)cc1)C(=O)N[C@@H](CC(C)C)C(=O)N1CCC[C@H]1C(=O)N1CCC(CC(N)=O)C1 (stereo partly drawn) [4-[(2S)-2-{[(2S)-1-[(2S)-2-{[3-(carbamoylmethyl)pyrrolidin-1-yl]carbonyl}pyrrolidin-1-yl]-4-methyl-1-oxopentan-2-yl]carbamoyl}-2-acetamidoethyl]phenoxyphosphonic acid],pIC50,,5.77
"CC(=O)N[C@@H](Cc1ccc(OP(=O)(O)O)cc1)C(=O)N[C@@H](CC(C)C)C(=O)N1CCC[C@H](C(=O)N[C@@H](CCC(N)=O)C(=O)N[C@H](C(N)=O)C(C)O)C1 (stereo partly drawn) [23, Ac-pTyr-Leu-Nip-Gln-Thr-NH2-2] (Ac-[pY]L[X2]Q[Thr(3ξ)]-NH2)",pIC50,"pH 7.5, 22 °C",4.41 and 4.48
CCN(CC)C(=O)[C@H](CCC(N)=O)NC(=O)[C@@H]1CCCN1C(=O)[C@H](CC(C)C)NC(=O)[C@H](Cc1ccc(OP(=O)(O)O)cc1)NC(C)=O [4-[(2S)-2-{[(2S)-1-[(2S)-2-{[(1S)-3-carbamoyl-1-(diethylcarbamoyl)propyl]carbamoyl}pyrrolidin-1-yl]-4-methyl-1-oxopentan-2-yl]carbamoyl}-2-acetamidoethyl]phenoxyphosphonic acid] (Ac-[pY]LPQ-NEt2),pIC50,,5.37
